Assay results from US9834565B2, “Tricyclic heterocycles as bet protein inhibitors” (Incyte Corporation, priority 2014, dated 2017).

Columns and labels:
BRD4-BD1 = BRD4-BD1 (Homo sapiens (Human), UniProt O60885); experiment: BRD4-BD1 AlphaScreen assay; format: binding; settings: H4Ac4 peptide, read-out: BRD4 BD-1 enzyme IC50
Method: (§1) BRD4-BD1 and BRD4-BD2 assays were conducted in white 384-well polystyrene plate in a final volume of 20 μL for BD1 and 40 μL for BD2. Inhibitors were first serially diluted in DMSO and added to the plate wells before the addition of other reaction components. […] After plate sealing, the plate was incubated in the dark at room temperature for 75 min. before reading on a PHERAstar FS plate reader (BMG Labtech). IC50 determination was performed by fitting the curve of percent control activity versus the log of the inhibitor concentration using the GraphPad Prism 5.0 software.

BRD4-BD2 = BRD4-BD2 (Homo sapiens (Human), UniProt O60885); experiment: BRD4-BD2 AlphaScreen assay; format: binding; settings: H4Ac4 peptide, read-out: BRD4 BD-2 enzyme IC50
Method: as §1

IC50 (BRD4-BD1) [nM]	IC50 (BRD4-BD2) [nM]	Structure (SMILES)
< 25	< 25	Cc1noc(C)c1-c1ccc2nc(N3CCC(N(C)S(=O)(=O)C4CC4)CC3)n3c2c1OC[C@@H]3c1ccccn1 [Example 24, N-{1-[(4S)-7-(3,5-dimethylisoxazol-4-yl)-4-pyridin-2-yl-4,5-dihydroimidazo[1,5,4-de][1,4]benzoxazin-2-yl]piperidin-4-yl}-N-methylcyclopropanesulfonamide]
< 25	< 25	Cc1noc(C)c1-c1ccc2nc(N3CCC(NC(=O)C4CCC4)CC3)n3c2c1OC[C@@H]3c1ccccn1 [Example 13, N-{1-[(4S)-7-(3,5-dimethylisoxazol-4-yl)-4-pyridin-2-yl-4,5-dihydroimidazo[1,5,4-de][1,4]benzoxazin-2-yl]piperidin-4-yl}cyclobutanecarboxamide]
< 25	< 25	CCS(=O)(=O)N(C)C1CCN(c2nc3ccc(-c4c(C)noc4C)c4c3n2[C@@H](c2ccccn2)CO4)CC1 [Example 23, N-{1-[(4S)-7-(3,5-dimethylisoxazol-4-yl)-4-pyridin-2-yl-4,5-dihydroimidazo[1,5,4-de][1,4]benzoxazin-2-yl]piperidin-4-yl}-N-methylethanesulfonamide]
< 25	< 25	CCCC(=O)N1CCN(c2nc3ccc(-c4c(C)noc4C)c4c3n2[C@@H](c2ccccn2)CO4)CC1 [Example 25, (4S)-2-(4-butyrylpiperazin-1-yl)-7-(3,5-dimethylisoxazol-4-yl)-4-pyridin-2-yl-4,5-dihydroimidazo[1,5,4-de][1,4]benzoxazine]
< 25	< 25	COCC(=O)N1CCN(c2nc3ccc(-c4c(C)noc4C)c4c3n2[C@@H](c2ccccn2)CO4)CC1 [Example 29, (4S)-7-(3,5-dimethylisoxazol-4-yl)-2-[4-(methoxyacetyl)piperazin-1-yl]-4-pyridin-2-yl-4,5-dihydroimidazo[1,5,4-de][1,4]benzoxazine]
< 25	< 25	CCCC(=O)NC1CCN(c2nc3ccc(-c4c(C)noc4C)c4c3n2[C@@H](c2ccccn2)CO4)CC1 [Example 10, N-{1-[(4S)-7-(3,5-dimethylisoxazol-4-yl)-4-pyridin-2-yl-4,5-dihydroimidazo[1,5,4-de][1,4]benzoxazin-2-yl]piperidin-4-yl}butanamide]
< 25	< 25	Cc1noc(C)c1-c1ccc2nc(N3CCN(C(=O)C4CCC4)CC3)n3c2c1OC[C@@H]3c1ccccn1 [Example 28, (4S)-2-[4-(cyclobutylcarbonyl)piperazin-1-yl]-7-(3,5-dimethylisoxazol-4-yl)-4-pyridin-2-yl-4,5-dihydroimidazo[1,5,4-de][1,4]benzoxazine]
< 25	< 25	CCCC(=O)N(C)C1CCN(c2nc3ccc(-c4c(C)noc4C)c4c3n2[C@@H](c2ccccn2)CO4)CC1 [Example 16, N-{1-[(4S)-7-(3,5-dimethylisoxazol-4-yl)-4-pyridin-2-yl-4,5-dihydroimidazo[1,5,4-de][1,4]benzoxazin-2-yl]piperidin-4-yl}-N-methylbutanamide]
< 25	< 25	Cc1noc(C)c1-c1ccc2nc(N3CCC(N(C)C(=O)C4CC4)CC3)n3c2c1OC[C@@H]3c1ccccn1 [Example 19, N-{1-[(4S)-7-(3,5-dimethylisoxazol-4-yl)-4-pyridin-2-yl-4,5-dihydroimidazo[1,5,4-de][1,4]benzoxazin-2-yl]piperidin-4-yl}-N-methylcyclopropanecarboxamide]
25 to 100	< 25	CC(=O)N1CCN(c2nc3ccc(-c4c(C)noc4C)c4c3n2[C@@H](c2ccccn2)CO4)[C@@H](C)C1 [Example 3, (4S)-2-[(2S)-4-acetyl-2-methylpiperazin-1-yl]-7-(3,5-dimethylisoxazol-4-yl)-4-pyridin-2-yl-4,5-dihydroimidazo[1,5,4-de][1,4] benzoxazine]
< 25	< 25	Cc1noc(C)c1-c1ccc2nc(N3CCN(C(=O)C(C)C)CC3)n3c2c1OC[C@@H]3c1ccccn1 [Example 1, (4S)-7-(3,5-Dimethylisoxazol-4-yl)-2-(4-isobutyrylpiperazin-1-yl)-4-pyridin-2-yl-4,5-dihydroimidazo[1,5,4-de][1,4]benzoxazine]
< 25	< 25	Cc1noc(C)c1-c1ccc2nc(N3CCC(N(C)C(=O)C(C)C)CC3)n3c2c1OC[C@@H]3c1ccccn1 [Example 17, N-{1-[(4S)-7-(3,5-dimethylisoxazol-4-yl)-4-pyridin-2-yl-4,5-dihydroimidazo[1,5,4-de][1,4]benzoxazin-2-yl]piperidin-4-yl}-N,2-dimethylpropanamide]
< 25	< 25	CC(=O)N1CC2CC1CN2c1nc2ccc(-c3c(C)noc3C)c3c2n1[C@@H](c1ccccn1)CO3 (stereo partly drawn) [Example 4, (4S)-2-(5-acetyl-2,5-diazabicyclo[2.2.1]hept-2-yl)-7-(3,5-dimethylisoxazol-4-yl)-4-pyridin-2-yl-4,5-dihydroimidazo[1,5,4-de][1,4]benzoxazine]
25 to 100	< 25	CC(=O)NC1(C)CCN(c2nc3ccc(-c4c(C)noc4C)c4c3n2[C@@H](c2ccccn2)CO4)CC1 [Example 5, N-{1-[(4S)-7-(3,5-dimethylisoxazol-4-yl)-4-pyridin-2-yl-4,5-dihydroimidazo[1,5,4-de][1,4]benzoxazin-2-yl]-4-methylpiperidin-4-yl}acetamide]
< 25	< 25	CC(=O)N1C[C@@H](C)N(c2nc3ccc(-c4c(C)noc4C)c4c3n2[C@@H](c2ccccn2)CO4)[C@@H](C)C1 (atropisomer, axis not shown) [Example 2, (4S)-2-[(2R,6S)-4-Acetyl-2,6-dimethylpiperazin-1-yl]-7-(3,5-dimethylisoxazol-4-yl)-4-pyridin-2-yl-4,5-dihydroimidazo[1,5,4-de][1,4]benzoxazine]
< 25	< 25	Cc1noc(C)c1-c1ccc2nc(N3CCN(C(=O)C(C)(C)C)CC3)n3c2c1OC[C@@H]3c1ccccn1 [Example 26, (4S)-7-(3,5-dimethylisoxazol-4-yl)-2-[4-(2,2-dimethylpropanoyl)piperazin-1-yl]-4-pyridin-2-yl-4,5-dihydroimidazo[1,5,4-de][1,4]benzoxazine]
< 25	< 25	CCC(=O)N1CCN(c2nc3ccc(-c4c(C)noc4C)c4c3n2[C@@H](c2ccccn2)CO4)C[C@@H]1C [Example 8, (4S)-7-(3,5-dimethylisoxazol-4-yl)-2-[(3S)-3-methyl-4-propionylpiperazin-1-yl]-4-pyridin-2-yl-4,5-dihydroimidazo[1,5,4-de][1,4]benzoxazine]
< 25	< 25	CCC(=O)N(C)C1CCN(c2nc3ccc(-c4c(C)noc4C)c4c3n2[C@@H](c2ccccn2)CO4)CC1 [Example 15, N-{1-[(4S)-7-(3,5-dimethylisoxazol-4-yl)-4-pyridin-2-yl-4,5-dihydroimidazo[1,5,4-de][1,4]benzoxazin-2-yl]piperidin-4-yl}-N-methylpropanamide]
< 25	< 25	Cc1noc(C)c1-c1ccc2nc(N3CCC(N(C)C(=O)C(C)(C)C)CC3)n3c2c1OC[C@@H]3c1ccccn1 [Example 18, N-{1-[(4S)-7-(3,5-dimethylisoxazol-4-yl)-4-pyridin-2-yl-4,5-dihydroimidazo[1,5,4-de][1,4]benzoxazin-2-yl]piperidin-4-yl}-N,2,2-trimethylpropanamide]
< 25	< 25	Cc1noc(C)c1-c1ccc2nc(N3CCC(NC(=O)C(C)(C)C)CC3)n3c2c1OC[C@@H]3c1ccccn1 [Example 11, N-{1-[(4S)-7-(3,5-dimethylisoxazol-4-yl)-4-pyridin-2-yl-4,5-dihydroimidazo[1,5,4-de][1,4]benzoxazin-2-yl]piperidin-4-yl}-2,2-dimethylpropanamide]
< 25	< 25	Cc1noc(C)c1-c1ccc2nc(N3CCC(N(C)C(=O)C4CCC4)CC3)n3c2c1OC[C@@H]3c1ccccn1 [Example 20, N-{1-[(4S)-7-(3,5-dimethylisoxazol-4-yl)-4-pyridin-2-yl-4,5-dihydroimidazo[1,5,4-de][1,4]benzoxazin-2-yl]piperidin-4-yl}-N-methylcyclobutanecarboxamide]
< 25	< 25	Cc1noc(C)c1-c1ccc2nc(N3CCN(C(=O)C(C)C)[C@@H](C)C3)n3c2c1OC[C@@H]3c1ccccn1 [Example 9, (4S)-7-(3,5-dimethylisoxazol-4-yl)-2-[(3S)-4-isobutyryl-3-methylpiperazin-1-yl]-4-pyridin-2-yl-4,5-dihydroimidazo[1,5,4-de][1,4]benzoxazine]
